# Test results taken from patent US12435044B2, “Pyridazinone herbicides and pyridazinone intermediates used to prepare a herbicide” (FMC Corporation, priority 2018, dated 2025).
# Columns and labels:
# Type in all cases: in vivo
# [1] = test system: Russian thistle (Salsola kali); assay: Test D postemergence controlled growth environment test
# Source text: (§1) Seeds of plant species selected from blackgrass (Alopecurus myosuroides), galium (catchweed bedstraw, Galium aparine), kochia (Kochia scoparia), oilseed rape (Brassica napus), barley, spring (Hordeum vulgare), wheat, spring (Triticum aestivum), oat, wild (Avena fatua), barley, winter (Hordeum vulgare) and wheat, winter (Triticum aestivum) were planted into a silt loam soil and treated preemergence with test chemicals formulated in a non-phytotoxic solvent mixture which included a surfactant.
# (§2) At the same time, plants selected from these crop and weed species and also bluegrass (annual bluegrass, Poa annua), canarygrass (littleseed canarygrass, Phalaris minor), chickweed (common chickweed, Stellaria media), bromegrass, downy (downy bromegrass, Bromus tectorum), field poppy (Papaver rhoeas), field violet (Viola arvensis), foxtail, green (Setaria viridis), deadnettle (henbit deadnettle, Lamium amplexicaule), ryegrass, Italian (Lolium multiflorum), lambsquarters (Chenopodium album), pigweed (Amaranthus retroflexus), chamomile (scentless chamomile, Matricaria inodora), Russian thistle (Salsola kali), speedwell (bird's-eye speedwell, Veronica persica), buckwheat, wild (Polygonum convolvulus), mustard, wild (Sinapis arvensis), radish, wild (Raphanus raphanistrum), windgrass (Apera spica-venti), geranium, cutleaf (Geranium dissectum) and Canada thistle (Cirsium arvense) were planted in pots containing Redi-Earth® planting medium (Scotts Company, 14111 Scottslawn Road, Marysville, Ohio 43041) comprising spaghnum peat moss, vermiculite, wetting agent and starter nutrients and treated with postemergence applications of the test chemicals formulated in the same manner. Plants ranged in height from 2 to 18 cm (1- to 4-leaf stage). Treated plants and controls were maintained in a controlled growth environment for 14 to 21 d after which time all species were compared to controls and visually evaluated. Plant response ratings, summarized in Table D, are based on a scale of 0 to 100 where 0 is no effect and 100 is complete control. A dash (-) response means no test result.
# [2] = test system: bluegrass (annual bluegrass, Poa annua); assay: as above
# Source text: as §1, §2
# [3] = test system: bromegrass, downy (downy bromegrass, Bromus tectorum); assay: as above
# Source text: as §1, §2
# [4] = test system: buckwheat, wild (Polygonum convolvulus); assay: as above
# Source text: as §1, §2
# [5] = test system: deadnettle (henbit deadnettle, Lamium amplexicaule); assay: as above
# Source text: as §1, §2
# [6] = test system: field poppy (Papaver rhoeas); assay: as above
# Source text: as §1, §2
# [7] = test system: field violet (Viola arvensis); assay: as above
# Source text: as §1, §2
# [8] = test system: foxtail, green (Setaria viridis); assay: as above
# Source text: as §1, §2
# [9] = test system: mustard, wild (Sinapis arvensis); assay: as above
# Source text: as §1, §2
# [10] = test system: pigweed (Amaranthus retroflexus); assay: as above
# Source text: as §1, §2
# [11] = test system: speedwell (bird's-eye speedwell, Veronica persica); assay: as above
# Source text: as §1, §2
# [12] = test system: windgrass (Apera spica-venti); assay: as above
# Source text: as §1, §2
# [13] = test system: waterhemp_RES1, (ALS & Triazine resistant common waterhemp, Amaranthus rudis); assay: Test E postemergence greenhouse test
# Source text: (§3) Seeds of plant species selected from corn (Zea mays), soybean (Glycine max), velvetleaf (Abutilon theophrasti), lambsquarters (Chenopodium album), poinsettia, wild (Euphorbia heterophylla), pigweed, palmer (Amaranthus palmeri), waterhemp (common waterhemp, Amaranthus rudis), surinam grass (Brachiaria decumbens), crabgrass, large (Digitaria sanguinalis), crabgrass, Brazil (Digitaria horizontalis), panicum, fall (Panicum dichotomiflorum), foxtail, giant (Setaria faberii), foxtail, green (Setaria viridis), goosegrass (Eleusine indica), johnsongrass (Sorghum halepense), ragweed (common ragweed, Ambrosia elatior), barnyardgrass (Echinochloa crus-galli), sandbur (southern sandbur, Cenchrus echinatus), arrowleaf sida (Sida rhombifolia), ryegrass, Italian (Lolium multiflorum), dayflower, VA (Virginia (VA) dayflower, Commelina virginica), field bindweed (Convolvulus arvensis), morningglory (Ipomoea coccinea), horseweed (Conyza canadensis), kochia (Kochia scoparia), nutsedge, yellow (Cyperus esculentus) and hairy beggarticks (Bidenspilosa), were planted into a silt loam soil and treated preemergence with test chemicals formulated in a non-phytotoxic solvent mixture which included a surfactant.
# (§4) At the same time, plants selected from these crop and weed species and also waterhemp_RES1, (ALS & Triazine resistant common waterhemp, Amaranthus rudis), and waterhemp_RES2, (ALS & HPPD resistant common waterhemp, Amaranthus rudis) were planted in pots containing Redi-Earth® planting medium (Scotts Company, 14111 Scottslawn Road, Marysville, Ohio 43041) comprising spaghnum peat moss, vermiculite, wetting agent and starter nutrients were treated with postemergence applications of test chemicals formulated in the same manner. Plants ranged in height from 2 to 18 cm for postemergence treatments (1- to 4-leaf stage). Treated plants and controls were maintained in a greenhouse for 14 to 21 d, after which time all species were compared to controls and visually evaluated. Plant response ratings, summarized in Table E, are based on a scale of 0 to 100 where 0 is no effect and 100 is complete control. A dash (-) response means no test result.
# [14] = test system: waterhemp_RES2, (ALS & HPPD resistant common waterhemp, Amaranthus rudis); assay: Test E postemergence greenhouse test
# Source text: as §3, §4
smiles,measurement,setting,value
"Cc1ccc2ccc(C)c(-c3c(O)c(Cl)nn(C)c3=O)c2c1 [Cpd. No. 20, 6-chloro-4-(2,7-dimethyl-1-naphthalenyl)-5-hydroxy-2-methyl-3(2H)-pyridazinone]","Plant response rating, Russian Thistle",[1]; 16 g ai/ha,80
same,"Plant response rating, Russian Thistle",[1]; 31 g ai/ha,75
same,"Plant response rating, Russian Thistle",[1]; 62 g ai/ha,80
same,"Plant response rating, Russian Thistle",[1]; 125 g ai/ha,85
same,"Plant response rating, Bluegrass",[2]; 16 g ai/ha,0
same,"Plant response rating, Bluegrass",[2]; 31 g ai/ha,5
same,"Plant response rating, Bluegrass",[2]; 62 g ai/ha,5
same,"Plant response rating, Bluegrass",[2]; 125 g ai/ha,10
same,"Plant response rating, Bromegrass, Downy",[3]; 16 g ai/ha,0
same,"Plant response rating, Bromegrass, Downy",[3]; 31 g ai/ha,5
same,"Plant response rating, Bromegrass, Downy",[3]; 62 g ai/ha,10
same,"Plant response rating, Bromegrass, Downy",[3]; 125 g ai/ha,25
same,"Plant response rating, Buckwheat, Wild",[4]; 16 g ai/ha,100
same,"Plant response rating, Buckwheat, Wild",[4]; 31 g ai/ha,98
same,"Plant response rating, Buckwheat, Wild",[4]; 62 g ai/ha,99
same,"Plant response rating, Buckwheat, Wild",[4]; 125 g ai/ha,100
same,"Plant response rating, Deadnettle",[5]; 16 g ai/ha,35
same,"Plant response rating, Deadnettle",[5]; 31 g ai/ha,80
same,"Plant response rating, Deadnettle",[5]; 62 g ai/ha,85
same,"Plant response rating, Deadnettle",[5]; 125 g ai/ha,95
same,"Plant response rating, Field Poppy",[6]; 16 g ai/ha,80
same,"Plant response rating, Field Poppy",[6]; 31 g ai/ha,85
same,"Plant response rating, Field Poppy",[6]; 62 g ai/ha,100
same,"Plant response rating, Field Poppy",[6]; 125 g ai/ha,100
same,"Plant response rating, Field Violet",[7]; 16 g ai/ha,80
same,"Plant response rating, Field Violet",[7]; 31 g ai/ha,80
same,"Plant response rating, Field Violet",[7]; 62 g ai/ha,95
same,"Plant response rating, Field Violet",[7]; 125 g ai/ha,95
same,"Plant response rating, Foxtail, Green",[8]; 16 g ai/ha,85
same,"Plant response rating, Foxtail, Green",[8]; 31 g ai/ha,90
same,"Plant response rating, Foxtail, Green",[8]; 62 g ai/ha,95
same,"Plant response rating, Foxtail, Green",[8]; 125 g ai/ha,98
same,"Plant response rating, Mustard, Wild",[9]; 16 g ai/ha,20
same,"Plant response rating, Mustard, Wild",[9]; 31 g ai/ha,25
same,"Plant response rating, Mustard, Wild",[9]; 62 g ai/ha,30
same,"Plant response rating, Mustard, Wild",[9]; 125 g ai/ha,60
same,"Plant response rating, Pigweed",[10]; 16 g ai/ha,98
same,"Plant response rating, Pigweed",[10]; 31 g ai/ha,98
same,"Plant response rating, Pigweed",[10]; 62 g ai/ha,100
same,"Plant response rating, Pigweed",[10]; 125 g ai/ha,100
same,"Plant response rating, Speedwell",[11]; 16 g ai/ha,50
same,"Plant response rating, Speedwell",[11]; 31 g ai/ha,60
same,"Plant response rating, Speedwell",[11]; 62 g ai/ha,80
same,"Plant response rating, Speedwell",[11]; 125 g ai/ha,85
same,"Plant response rating, Windgrass",[12]; 16 g ai/ha,15
same,"Plant response rating, Windgrass",[12]; 31 g ai/ha,25
same,"Plant response rating, Windgrass",[12]; 62 g ai/ha,50
same,"Plant response rating, Windgrass",[12]; 125 g ai/ha,75
same,"Plant response rating, Waterhemp_RES1",[13]; 16 g ai/ha,75
same,"Plant response rating, Waterhemp_RES1",[13]; 31 g ai/ha,90
same,"Plant response rating, Waterhemp_RES1",[13]; 62 g ai/ha,80
same,"Plant response rating, Waterhemp_RES1",[13]; 125 g ai/ha,95
same,"Plant response rating, Waterhemp_RES2",[14]; 16 g ai/ha,15
same,"Plant response rating, Waterhemp_RES2",[14]; 31 g ai/ha,40
same,"Plant response rating, Waterhemp_RES2",[14]; 62 g ai/ha,60
same,"Plant response rating, Waterhemp_RES2",[14]; 125 g ai/ha,70
